Source: a melting point compilation (Tetko et al.; mined from patent text by program, amines drawn as free bases though some values may be those of a salt)

| Structure (SMILES) | melting point [°C] |
| --- | --- |
| CCOC(=O)c1cc2cc(Cl)c(F)cc2[nH]1 | 160 to 164 |
| COCOc1c(OC)cc(/C=C/C(=O)/C=C/c2cc(OC)c(OCOC)c(OC)c2)cc1OC | 146 to 148 |
| CSc1ccc(COc2c(C)c(C)c3c(c2C)C(c2ccc(C(C)C)cc2)C(C)(C)O3)cc1 (stereo unspecified) | 118 to 120 |
| CC(=O)OCc1cncc(COc2cc3c(=O)c(Cc4cccnc4)cn4c5ccc(Br)cc5c(c2)c34)c1 | 83.5 to 84.5 |
| CC(C)NC(=O)CCC(O)c1ccccc1 (stereo unspecified) | 131 to 135 |
| O=[N+]([O-])c1nccn1CCI | 79 to 82 |
| O=c1c2cc(F)c(F)cc2n(-c2ccccc2F)c(=O)n1OCc1ccccc1 | 204 to 206 |
| Cc1cc(-n2cncn2)c2cccc(C)c2n1 | 99 to 100 |
| CCc1[nH]n(C2CCCC2)c2nc(-c3cc(OCCN4CCOCC4)cc(OCCN4CCOCC4)c3)nc(=O)c1-2 | 182 to 183 |
| CC(=O)S[C@@H](CC1CCCCC1)C(=O)O | 159 to 161 |
| CCC1CC(C)(C)Oc2c1cc(C(C)=O)c(O)c2C (stereo unspecified) | 92 to 93 |
| CC(C)(C)n1nnc(Cc2ccc(Br)cc2)n1 | 69 to 70 |
| CC(=O)N(C)c1cccc2c1nc(-c1c(F)cccc1F)n2Cc1c(F)cccc1F | 155 to 156 |
| C[C@@H](c1ccccc1)n1c(O)nc2c(N)nc3cccnc3c21 | 241 to 243 |
| CCC(C)(N)Cc1c[nH]c2ccccc12 (stereo unspecified) | 112 |
| Cc1ccc(OC(C)C(=O)c2cc(C(C)(C)C)c(O)c(C(C)(C)C)c2)c(-n2nc3ccccc3n2)c1 (stereo unspecified) | 161 |
| CN(C)C1(c2ccccc2)CCC(CNC(=O)N2CC=C(c3c[nH]c4ccccc34)CC2)CC1 (stereo unspecified) | 112 to 115 |
| CCCCCCC(C)Oc1ccc(-c2ccc(O)cc2)cc1F (stereo unspecified) | 65.2 to 66.7 |
| CNC(=NCCSCc1nc[nH]c1C)S(=O)(=O)O | 162 to 164 |
| COC(=O)C1=CC(=O)CCC1c1ccccc1OC (racemic) | 76 |
| CN(C)C(=O)Nc1ccc(O)cc1 | 178 to 179 |
| Cn1nc(-c2ccc(Br)cc2)c2ccccc2c1=O | 168 to 170 |

| Structure (SMILES) | melting point [°C] |
| --- | --- |
| CCOP(=O)(OCC)C(CCc1cc(C)nc2c(C#N)c(C)nn12)P(=O)(OCC)OCC | 49 to 50 |
| Cc1nnc2n1-c1ccc(I)cc1C(c1ccccc1F)=NC2 | 235 to 238 |
| O=S(=O)(O)c1cc(NCc2c(F)c(F)c(C(F)(F)F)c(F)c2F)ccc1O | > 300 |
| C=Cc1cccc2c1-c1ccc3c(c1C(C1(C)CC=CCC1)O2)C(C)=CC(C)(C)N3 (stereo unspecified) | 198 to 201 |
| CCOC(=O)c1cn2c3c(c(F)c(F)cc3c1=O)OCC2CO (stereo unspecified) | 268 to 270 |
| Cn1cnc2c(cnn2-c2ncc(C(F)(F)F)cc2Cl)c1=O | 253 |
| COc1cc(/C=C/c2ccc(C)cc2)cc(OC)c1OC | 125 to 127 |
| COC(=O)[C@H](O)[C@@H](NC(=O)OC(C)(C)C)c1ccc(C#N)cc1 | 250 |
| CC1CCC2(OC1)OC1CC3C4CCC5CC(=O)CCC5(C)C4CCC3(C)C1C2C (stereo unspecified) | 209 to 211 |
| CCCOc1ccccc1-c1nc2nc(NCCCO)ncc2c(=O)[nH]1 | 185 to 186 |
| CCCc1c(C(=O)N(C)Cc2ccc3c(Br)c(OCC#N)ccc3c2)cnn1-c1ccccc1 | 76 to 80 |
| COC(=O)Cc1c(NC(C)=O)n(C)c2ccccc12 | 126 to 128 |
| CCC(=O)N1CCN(C(=O)Cl)CC1 | 45 |
| CCOc1cc2c(cc1Cc1ccc3c(c1)OCO3)OCO2 | 44 |
| O=C1C(CCC(O)c2ccc(F)cc2)C(c2ccc(-c3ccc(C4OC(CO)C(O)C(O)C4O)cc3)cc2O)N1c1ccccc1 (stereo unspecified) | 152 to 160 |
| COc1cc(SC2SCC(O)C(O)C2O)cc(OC)c1OC (stereo unspecified) | 166 |
| CCOCC1CN2CCC1CC2 (stereo unspecified) | 73 to 77 |
| COC(=O)c1c[nH]c2ccc(N)cc12 | 217 to 219 |
| N#Cc1ncccc1-c1nc2cccnc2o1 | 129 to 133 |
| COC(=O)C1CCC2C3CCC4CC(=O)CCC4(C)C3C(NC3CCCCC3)CC12C (stereo unspecified) | 93 to 94 |
| CCSC1CCC(=O)N1 (stereo unspecified) | 65 to 68 |

The remaining lines, values ahead:

| melting point [°C] | Structure (SMILES) |
| --- | --- |
| 129 to 130 | c1cc2cc3ccc(OCCN4CCCCC4)cc3nc2cc1OCCN1CCCCC1 |
| 122 to 125 | O=C1c2ccccc2C(=O)N1CCc1cccc(F)c1 |
| 180 to 182 | CC(C)(C)[C@H]1CC[C@H](CC2=C(O)C(=O)c3ccccc3C2=O)CC1 |
| 199 to 201 | CCCCNS(=O)(=O)c1cc(C(=O)O)cc([N+](=O)[O-])c1Cl |
| 85 to 86 | COC(=O)C1CCC(OC2=C3N=c4ccccc4=C3C(Cc3ccc(F)cc3)C=C2)O1 (stereo unspecified) |
| 198 to 202 | O=C(CCc1ccccc1)N[C@H]1CCCN2CCC[C@@H](C(=O)O)N2C1=O |
| 151 | CN1C=C(c2ccccc2)c2cccc(NC(=O)C=NO)c2C1 |
| 218 | O=C(Nc1ncc(C(F)(F)F)o1)C1c2ccccc2Oc2ccccc21 |
| 225 to 226 | Cc1nc(-n2cnn(Cc3ccc(F)cc3)c2=O)sc1C(=O)NCc1cn(C)cn1 |
| 220 to 222 | O=C(Cc1ccc(OCc2cccc(C(=O)O)c2)cc1)NC1(C(=O)O)Cc2ccc(-c3ccc(Cl)cc3)cc2C1 (stereo unspecified) |
| 94 to 95 | CCCNC(=O)CCCc1ccc2c(c1)c(Cc1ccc(C(=O)NS(=O)(=O)c3ccccc3C)cc1OC)cn2CCC |
| 116 to 118 | Nc1ncc2ncn(CCC(CO)COC(=O)c3ccccc3)c2n1 (stereo unspecified) |
| 80 | CC1CCCN1CCCOc1ccc(C2CCC(O)CC2)cc1 (stereo unspecified) |
| 216 to 217 | NC(=O)N1C(=O)C(C(=O)c2sccc2Br)c2cc(Cl)ccc21 (stereo unspecified) |
| 162 to 163 | COc1ccc(N2CCN(c3c(C)c(C)c4c(c3C)C(OCc3ccc(C(=O)O)cc3)C(C)(C)O4)CC2)cc1 (stereo unspecified) |
| 189 to 190 | Cc1c(NC(=O)CC(C)(C)C)cc2c(c1C)OC(C)(C)C2(O)c1cccc(C=O)c1 (stereo unspecified) |
| 161 to 162 | COc1cc(C(=O)N2Cc3ccc(C(=O)NCc4ccc(C)cc4C)n3Cc3ccccc32)ccc1-c1ccccc1C |
| 70 to 90 | Cc1ccc(C2(O)C(c3ccccc3)SC3=NCCCCN32)s1 (stereo unspecified) |
| 195 to 196 | CNC(=O)c1sc2cnccc2c1Oc1ccc(CO)cc1 |
| 194 to 196 | O=C(O)CNC(=O)c1nc(Cl)c2cc(OCc3ccccc3)ccc2c1O |

| melting point [°C] | Structure (SMILES) |
| --- | --- |
| 108 to 110 | Cc1cc(Cl)n2nc(SCc3ccccc3)nc2c1 |
| 133 to 139 | Fc1cccc(F)c1Cn1nnc2c(Cl)nccc21 |
| 148 | NC(=O)C1(Nc2ccc(I)cc2)CCCC1 |
| 227 to 229 | CCCc1cc(-c2noc3cc(O)ccc23)ccc1O |
| 82 to 85 | Clc1ccccc1C=C(Cn1cncn1)C1(Cl)CC1 |
| 111 to 115 | COc1ccccc1NC(=O)Nc1nc(N2CCCCC2)nc(N(CCC(=O)O)Cc2ccc(Cl)c(Cl)c2)n1 |
| 178 to 180 | CN(C)c1cccc(NC(=O)c2cccc(S(=O)(=O)N3CCCCCC3)c2)c1 |
| 131 to 132 | CC(=O)NC(C)CCC1CCN(c2nc3ccc(OCC4CC4)cc3o2)CC1 (stereo unspecified) |
| > 300 | CCOC(=O)c1ccc(NC(=O)Nc2nnc(-c3cc(Cl)cc(Cl)c3O)s2)cc1 |
| 198 to 199 | CCNc1nnc2ccc(-c3cccc(N(C)C(=O)CC)c3)nn12 |
| > 300 | O=C(Nc1cccc2c1C(=O)c1c-2n[nH]c1-c1ccc(C(=O)[C@]23CN[C@H](CN2)C3)s1)NN1CCOCC1 |
| < 90 | CN(C(=O)c1ccc2nonc2c1)C1CCOC(O)C1 (stereo unspecified) |
| 104 to 106 | CCCCCCCCOc1ccc(C(=O)Nc2cccc(Cl)c2Cl)cc1 |
| 280 to 282 | Oc1ccc2cc(-c3noc4cc(O)ccc34)ccc2c1 |
| 108 to 110 | CCCCCCCCCOc1cc(C(N)=O)ccn1 |
| 74 to 81 | CCOC(=O)C1=C(O)c2cc3ccccc3n2CCC1 |
| 96 to 96.3 | CCCCCc1ccc(-c2ncc(C#N)c(Cl)n2)cc1 |
| 190 to 195 | O=C(O)c1cccc(-c2nc3sccn3c2-c2ccnc(N[C@@H]3CCCN(S(=O)(=O)c4ccc(Cl)cc4)C3)n2)c1 |
| 133 | COc1ccc(S(=O)(=O)C2(C(=O)O)CCCN(Cc3ccccc3)C2)cc1 (stereo unspecified) |
| 99 | CCP(=O)(O)c1cc(Oc2ccc(C(F)(F)F)cc2Cl)ccc1[N+](=O)[O-] |

| melting point [°C] | Structure (SMILES) |
| --- | --- |
| 165 to 168 | CC(CNc1ccc(C(=O)O)cc1)Oc1ccc(Cl)c2ccccc12 (stereo unspecified) |
| 138 to 144 | O=C(Nc1cccc(-c2cccc(-n3c(=O)c(Cc4cccnc4)nc4cccnc43)c2)c1)C(F)(F)F |
| 155 | NS(=O)(=O)c1ccc(Nc2ccccc2)c([N+](=O)[O-])c1 |
| 128 to 130 | O=C(O)CCc1ccc2c(c1)C(=O)c1ccccc1CO2 |
| 104 to 105 | COC(=O)C(Cc1ccc([N+](=O)[O-])c(OCc2ccccc2)c1)NC(=O)OC(C)(C)C (stereo unspecified) |
| 230 | O=C(O)c1ccc(-c2cn(-c3ccc(OC(F)(F)F)cc3)cn2)cc1 |
| 160 | O=C(O)/C(=C/c1ccccc1)CSC(=O)c1ccccc1 |
| 172 to 174 | CCOC(=O)c1cn(-c2nccs2)c2c(F)c(F)c(F)cc2c1=O |
| 213 to 214 | Cc1cc(C#N)c(O)c(C(=O)O)c1 |
| 174 | CCCCCc1ccc(-c2ccc(C(=O)O)cc2)cc1 |
| 284 to 287 | O=C(O)c1ccnc(-c2ccc(Cl)c(C(=O)NCC34CC5CC(CC(C5)C3)C4)c2)c1 |
| 227 to 228 | CCOC(=O)c1cn2c3c(cc(Br)cc3c1=O)CC2(C)C |
| 182 | COCCC(=O)N[C@H]1CC[C@H](CCN2CCC(c3cccc4c3CCO4)CC2)CC1 |
| 210 | Cc1c(C(=O)Nc2ccc(N3CCC(N4CCOCC4)CC3)c(C#N)c2)cnn1-c1cccc(Cl)c1 |
| 178 to 180 | COC(=O)c1sc2ccccc2c1NC(C)=O |
| 188 to 190 | COC(=O)c1c[nH]c(-c2ccc(OC)cc2)n1 |
| 96 to 97 | CCN(CC)C(=O)n1ccc(Sc2ccc(Cl)cc2Cl)n1 |
| 190 to 196 | NC1(NC(=O)C(F)(F)F)CN(c2c(F)cc3c(=O)c(C(=O)O)cn(-c4ccc(F)cc4F)c3c2F)C1 |
